{"source": "patent US20150245597A1", "about": "“HETEROZYGOUS MOUSE WITH AN INACTIVATED BRD1 ALLELE AND USES IN PSYCHIATRY” (CAPNOVA A/S, priority 2012, published 2015)", "format_in_all_cases": "in vivo, mouse", "key": {"[1]": {"test_system": "R mice", "assay": "Psychotropic drug-induced locomotor hyperactivity test", "method": "Psychotropic drug-induced locomotor hyperactivity was established by injections with PCP (1.3, 2.5, and 5 mg/kg s.c.), amphetamine (1.3, 2.5, and 5 mg/kg s.c.) and cocaine (10, 20, and 30 mg/kg s.c.) as opposing saline vehicle s.c. and measured by recording both horizontal locomotor activity and rearing activity in an automated photo-cell equipped home-cage."}, "[2]": {"test_system": "R mice", "assay": "Pre-Pulse Inhibition (PPI) test during pharmacological challenge", "method": "Gaiting and re-activity of the startle reflex was investigated by Acoustic Startle Response (ASR) and Pre-Pulse Inhibition (PPI) tests. In addition to baseline scores mice were also tested during pharmacological challenge; PCP (2.5 and 5 mg/kg s.c.) and amphetamine (2.5 and 5 mg/kg s.c.)."}, "[3]": {"test_system": "R mice", "assay": "Forced swim test (FST) with anti-depressants", "settings": "for depressive equivalent behaviours during FST, difference between R and W mice: imipramine 1 mg/kg and 10 mg/kg, Fluoxetine 5 mg/kg, SC", "quoted_text": "(§2) Depressive equivalent behaviours were assessed by forced swim test (FST) and tail suspension test (TST). Depressive equivalent behaviours (FST and TST) were assessed with anti-depressants (e.g. imipramine at two doses: 1 mg/kg and 10 mg/kg and Fluoxetine: 5 mg/kg, and with normal saline vehicle subcutaneous (SC) injections."}, "[4]": {"test_system": "R mice", "assay": "Tail suspension test (TST) with anti-depressants", "settings": "for depressive equivalent behaviours during TST, difference between R and W mice: imipramine 1 mg/kg and 10 mg/kg, Fluoxetine 5 mg/kg, SC", "quoted_text": "as §2"}, "[5]": {"test_system": "R mice", "assay": "Y-maze spontaneous alternation test with PCP challenge", "settings": "R mice vs W, PCP 1.3 mg/kg s.c., p<0.01", "method": "(§1) Spatial learning and spatial working memory was tested in the Morris Water Maze (MWM). Learning was scored based on latency to escape while memory was scored based on frequency and time spent in each zone of the maze. Exploratory and working memory components was addressed by various types of y-maze alternation tasks including spontaneous alternation test with dark phase testing, continuous alternation, and delayed alternation. Both baseline and induced behaviour (PCP 1.3 mg/kg s.c. and 2.5 mg/kg s.c.) was assessed. In all Y-maze tasks, alternation was calculated as the percentage of right choices out of the total arm entries."}, "[6]": {"test_system": "R mice", "assay": "Y-maze continuous alternation test with PCP challenge", "settings": "R mice vs W, PCP 1.3 mg/kg s.c., p<0.05", "method": "as §1"}, "[7]": {"settings": "Imipramine 10 mg/kg compared with Fluoxetine"}}, "data": [{"smiles": "CC(N)Cc1ccccc1", "note": "(stereo not shown) [Amphetamine, amphetamine]", "values": [{"measurement": "drug-induced locomotor activity response (horizontal and rearing activity)", "setting": "[1]; R males compared to W mice, amphetamine 5 mg/kg s.c.", "value": "obvious hypoactivity"}, {"measurement": "differences between R and W mice in PPI test when challenged", "setting": "[2]; amphetamine at any dose (2.5 and 5 mg/kg s.c.)", "value": "No differences"}]}, {"smiles": "CNCCC(Oc1ccc(C(F)(F)F)cc1)c1ccccc1", "note": "(stereo not shown) [Fluoxetine]", "values": [{"measurement": "depressive equivalent behaviours during FST, difference between R and W mice", "setting": "[3]", "value": "reversed"}, {"measurement": "depressive equivalent behaviours during TST, difference between R and W mice", "setting": "[4]", "value": "reversed"}]}, {"smiles": "CN(C)CCCN1c2ccccc2CCc2ccccc21", "note": "[Imipramine, imipramine]", "values": [{"measurement": "effect size on depressive equivalent behaviours (FST)", "setting": "[3]; [7]", "value": "larger effect sizes than Fluoxetine"}, {"measurement": "depressive equivalent behaviours during FST, difference between R and W mice", "setting": "[3]", "value": "reversed"}, {"measurement": "effect size on depressive equivalent behaviours (TST)", "setting": "[4]; [7]", "value": "larger effect sizes than Fluoxetine"}, {"measurement": "depressive equivalent behaviours during TST, difference between R and W mice", "setting": "[4]", "value": "reversed"}]}, {"smiles": "c1ccc(C2(N3CCCCC3)CCCCC2)cc1", "note": "[PCP]", "values": [{"measurement": "alternation in the spontaneous alternation test", "setting": "[5]", "value": "significant reduction"}, {"measurement": "drug-induced locomotor hyperactivity (horizontal and rearing activity)", "setting": "[1]; R males vs W mice, PCP 5 mg/kg s.c.", "value": "clear sensitivity"}, {"measurement": "alternation in the continuous alternation test", "setting": "[6]", "value": "significant reduction"}, {"measurement": "inhibition of the startle in the PPI test", "setting": "[2]; R males vs W mice, high prepulse intensities (15 db above background noise level), PCP 5 m/kg s.c.", "value": "reduced"}, {"measurement": "Prepulse inhibition, response of R mice as compared to W littermates", "setting": "[2]; Table 1, males only with PCP", "value": "Decreased"}]}]}
